Data on 5 compounds can be found in ChEMBL document CHEMBL6177943, “Recent advances in small molecule design strategies against hepatic fibrosis” (Eur J Med Chem, 2025).

Series [1] concerns the target Collagen alpha-1(I) chain (Homo sapiens) (UniProt P02452). Kind of series: Inhibition of COL1A1 (unknown origin) transfected in human LX-2 cells at 40 uM incubated for 24 hrs by Bright-Glo luciferase assay relative to control. The format is cell-based.
A short description of series [2]: Anti-hepatic activity in rat HSC-T6 cells assessed as inhibition of LPS-induced cell proliferation at 10 uM incubated for 24 hrs by MTS assay relative to control. The format is functional. In general terms: Formazan colour is commonly taken as a measure of viable cells.
A short description of series [3]: Cmax in Sprague-Dawley rat at 25 mg/kg, po measured after 8 hrs. The series is classed as ADME, organism-based. The settings on record: in vivo.
A further series concerns LX-2. The experiment in a line: Anti-fibrotic activity in human LX-2 cells assessed as inhibition of alpha-SMA mRNA expression. The format is functional. Also on record: scale not given: the % may be the effect or the level left.

Collagen alpha-1(I) chain (Homo sapiens), sequence (P02452 whole entry): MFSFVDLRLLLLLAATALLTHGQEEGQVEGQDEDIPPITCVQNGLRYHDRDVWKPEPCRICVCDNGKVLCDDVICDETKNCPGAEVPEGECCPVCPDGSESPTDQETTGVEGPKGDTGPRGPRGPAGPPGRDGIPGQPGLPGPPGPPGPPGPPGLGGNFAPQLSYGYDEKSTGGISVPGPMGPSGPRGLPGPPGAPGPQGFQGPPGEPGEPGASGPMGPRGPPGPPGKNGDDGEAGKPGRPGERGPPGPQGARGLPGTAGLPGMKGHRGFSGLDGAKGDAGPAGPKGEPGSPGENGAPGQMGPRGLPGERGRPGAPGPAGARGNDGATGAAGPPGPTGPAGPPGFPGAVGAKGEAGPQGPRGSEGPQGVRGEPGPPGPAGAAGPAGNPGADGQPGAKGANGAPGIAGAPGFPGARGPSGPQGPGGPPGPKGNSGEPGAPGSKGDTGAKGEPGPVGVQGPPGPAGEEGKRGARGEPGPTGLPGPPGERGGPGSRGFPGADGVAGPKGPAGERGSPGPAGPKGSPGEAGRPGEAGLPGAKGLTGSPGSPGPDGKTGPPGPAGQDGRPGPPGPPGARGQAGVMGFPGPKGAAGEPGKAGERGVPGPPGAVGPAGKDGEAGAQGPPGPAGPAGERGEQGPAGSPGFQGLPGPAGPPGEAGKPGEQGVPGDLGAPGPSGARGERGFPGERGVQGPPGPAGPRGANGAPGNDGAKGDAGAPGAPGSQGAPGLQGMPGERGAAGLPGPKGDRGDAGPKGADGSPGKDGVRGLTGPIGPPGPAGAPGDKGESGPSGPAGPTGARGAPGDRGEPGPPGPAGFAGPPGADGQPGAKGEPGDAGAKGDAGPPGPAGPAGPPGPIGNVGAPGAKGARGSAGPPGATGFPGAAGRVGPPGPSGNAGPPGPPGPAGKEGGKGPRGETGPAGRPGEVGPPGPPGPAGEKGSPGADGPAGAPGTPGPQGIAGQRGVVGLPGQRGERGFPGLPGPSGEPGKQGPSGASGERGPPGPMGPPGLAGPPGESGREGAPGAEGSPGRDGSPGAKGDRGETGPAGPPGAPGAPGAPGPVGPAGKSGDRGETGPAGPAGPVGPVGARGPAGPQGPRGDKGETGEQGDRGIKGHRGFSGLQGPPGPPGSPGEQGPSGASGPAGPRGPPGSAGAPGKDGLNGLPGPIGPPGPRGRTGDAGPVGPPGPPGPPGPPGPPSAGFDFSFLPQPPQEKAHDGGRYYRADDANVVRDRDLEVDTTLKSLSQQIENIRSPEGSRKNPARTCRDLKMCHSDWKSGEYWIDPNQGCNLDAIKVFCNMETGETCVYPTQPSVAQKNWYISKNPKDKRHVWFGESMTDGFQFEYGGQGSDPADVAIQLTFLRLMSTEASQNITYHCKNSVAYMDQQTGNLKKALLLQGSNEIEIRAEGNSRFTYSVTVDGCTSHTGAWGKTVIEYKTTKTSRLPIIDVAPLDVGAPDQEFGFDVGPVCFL

Take `O=c1cccc2n1C[C@@H]1CNC[C@H]2C1`: the inhibition – broadly, the percentage by which the read-out fell short of the control – in series [1] worked out at 90%.

`COC(=O)c1cc2cc(OC)c(OC)cc2c2cc(C)ccc12`: the inhibition at 10 µM in series [2] turned out to be 34.2%. As for `C1=C2CCCN[C@H]2[C@@H]2C[C@H]1[C@H]1CCCCN1C2`, the inhibition in series [1] came out at 4.7%. With `O=c1cccc2n1CC1CC2CN(Cc2cc(Cl)ccc2Cl)C1` (stereo not given), in series [3], the Cmax – broadly, the peak of the concentration-time curve – came to 0.96 µM. `CCCCCCCCN(C)C(=O)c1cc(O)c(O)c(O)c1`: the Activity in the series on LX-2 is 47.7%.
